Measured values reported in ChEMBL document CHEMBL1287680, “C-11 diamino cryptolepine derivatives NSC748392, NSC748393, and NSC748394: anticancer profile and G-quadruplex stabilization” (Bioorg Med Chem Lett, 2010).

Tests used:
Malme-3M = experiment: cells; settings: Homo sapiens
Description: Anticancer activity against human MALME-3M cells

MDA-MB-435 = experiment: cells; settings: Homo sapiens
Description: Anticancer activity against human MDA-MB-435 cells

UACC-62 = experiment: cells; settings: Homo sapiens
Description: Anticancer activity against human UACC62 cells

NCI-H522 = experiment: cells; settings: Homo sapiens
Description: Anticancer activity against human NCI-H522 cells

A498 = experiment: cells; settings: Homo sapiens
Description: Anticancer activity against human A498 cells

NCI-H460 = experiment: cells; settings: Homo sapiens
Description: Anticancer activity against human NCI-H460 cells

Nucleic Acid = settings: Homo sapiens
Description: Binding affinity to human duplex DNA assessed as change in melting temperature by FRET-melting assay

HOP-92 = experiment: cells; settings: Homo sapiens
Description: Anticancer activity against human HOP92 cells

TK-10 = experiment: cells; settings: Homo sapiens
Description: Anticancer activity against human TK10 cells

SK-OV-3 = experiment: cells; settings: Homo sapiens
Description: Anticancer activity against human SKOV3 cells

SK-MEL-5 = experiment: cells; settings: Homo sapiens
Description: Anticancer activity against human SK-MEL-5 cells

U-251 = experiment: cells; settings: Homo sapiens
Description: Anticancer activity against human U251 cells

cells [1] = settings: Homo sapiens, Hs-578T
Description: Anticancer activity against human Hs 578T cells

IGROV-1 = experiment: cells; settings: Homo sapiens
Description: Anticancer activity against human IGROV1 cells

UACC-257 = experiment: cells; settings: Homo sapiens
Description: Anticancer activity against human UACC257 cells

NCI-H226 = experiment: cells; settings: Homo sapiens
Description: Anticancer activity against human NCI-H226 cells

CCRF-CEM = experiment: cells; settings: Homo sapiens
Description: Anticancer activity against human CCRF-CEM cells

HCT-15 = experiment: cells; settings: Homo sapiens
Description: Anticancer activity against human HCT15 cells

CAKI-1 = experiment: cells; settings: Homo sapiens
Description: Anticancer activity against human Caki1 cells

cells [2] = settings: Homo sapiens
Description: Anticancer activity against human RPMI8266 cells

MDA-MB-231 = experiment: cells; settings: Homo sapiens
Description: Anticancer activity against human MDA-MB-231 cells

ACHN = experiment: cells; settings: Homo sapiens
Description: Anticancer activity against human ACHN cells

HL-60(TB) = experiment: cells; settings: Homo sapiens
Description: Anticancer activity against human HL-60(TB) cells

K562 = experiment: cells; settings: Homo sapiens
Description: Anticancer activity against human K562 cells

HT-29 = experiment: cells; settings: Homo sapiens
Description: Anticancer activity against human HT-29 cells

SNB-19 = experiment: cells; settings: Homo sapiens
Description: Anticancer activity against human SNB19 cells

A549 = experiment: cells; settings: Homo sapiens
Description: Anticancer activity against human A549 cells

HCT-116 = experiment: cells; settings: Homo sapiens
Description: Anticancer activity against human HCT116 cells

HOP-62 = experiment: cells; settings: Homo sapiens
Description: Anticancer activity against human HOP62 cells

Description for physchem: Dissociation constant, pKa of the compound by UV-visible spectroscopy

Compound: C[n+]1c2ccccc2c(NC2CCNCC2)c2[nH]c3ccccc3c21.[Cl-]
- GI50 (Malme-3M; read-out: pGI50 (converted)): 1.55 µM
- CC50 (Malme-3M; read-out: pLC50 (converted)): 20 µM
- TGI (Malme-3M; read-out: pTGI): 4.37 µM
- GI50 (MDA-MB-435; MDA-MB-435, read-out: pGI50 (converted)): 2.95 µM
- CC50 (MDA-MB-435; MDA-MB-435, read-out: pLC50 (converted)): 42.7 µM
- TGI (MDA-MB-435; MDA-MB-435, read-out: pTGI): 10.5 µM
- pKa (physchem): 11.8
- GI50 (UACC-62; UACC-62, read-out: pGI50 (converted)): 0.2 µM
- CC50 (UACC-62; UACC-62, read-out: pLC50 (converted)): 3.63 µM
- TGI (UACC-62; UACC-62, read-out: pTGI): 0.933 µM
- GI50 (NCI-H522; NCI-H522, read-out: pGI50 (converted)): 0.123 µM
- CC50 (NCI-H522; NCI-H522, read-out: pLC50 (converted)): 3.31 µM
- TGI (NCI-H522; NCI-H522, read-out: pTGI): 0.692 µM
- GI50 (A498; A498, read-out: pGI50 (converted)): 1.62 µM
- CC50 (A498; A498, read-out: pLC50 (converted)): 26.3 µM
- TGI (A498; A498, read-out: pTGI): 5.13 µM
- GI50 (NCI-H460; NCI-H460, read-out: pGI50 (converted)): 0.245 µM
- CC50 (NCI-H460; NCI-H460, read-out: pLC50 (converted)): 22.4 µM
- TGI (NCI-H460; NCI-H460, read-out: pTGI): 1.62 µM
- ΔTm (Nucleic Acid): 15.1 °C
- GI50 (HOP-92; HOP-92, read-out: pGI50 (converted)): 1.15 µM
- CC50 (HOP-92; HOP-92, read-out: pLC50 (converted)): > 100 µM
- TGI (HOP-92; HOP-92, read-out: pTGI): 6.92 µM
- GI50 (TK-10; TK-10, read-out: pGI50 (converted)): 3.09 µM
- CC50 (TK-10; TK-10, read-out: pLC50 (converted)): > 100 µM
- TGI (TK-10; TK-10, read-out: pTGI): 14.5 µM
- GI50 (SK-OV-3; SK-OV-3, read-out: pGI50 (converted)): 0.447 µM
- CC50 (SK-OV-3; SK-OV-3, read-out: pLC50 (converted)): 77.6 µM
- TGI (SK-OV-3; SK-OV-3, read-out: pTGI): 3.89 µM
- GI50 (SK-MEL-5; SK-MEL-5, read-out: pGI50 (converted)): 0.302 µM
- CC50 (SK-MEL-5; SK-MEL-5, read-out: pLC50 (converted)): 4.68 µM
- TGI (SK-MEL-5; SK-MEL-5, read-out: pTGI): 1.32 µM
- GI50 (U-251; U-251, read-out: pGI50 (converted)): 0.282 µM
- CC50 (U-251; U-251, read-out: pLC50 (converted)): > 100 µM
- TGI (U-251; U-251, read-out: pTGI): 2.95 µM
- GI50 (cells [1]; read-out: pGI50 (converted)): 0.12 µM
- CC50 (cells [1]; read-out: pLC50 (converted)): 44.7 µM
- TGI (cells [1]; read-out: pTGI): 1.12 µM
- GI50 (IGROV-1; IGROV-1, read-out: pGI50 (converted)): 0.363 µM
- CC50 (IGROV-1; IGROV-1, read-out: pLC50 (converted)): > 100 µM
- TGI (IGROV-1; IGROV-1, read-out: pTGI): 5.01 µM
- GI50 (UACC-257; UACC-257, read-out: pGI50 (converted)): 5.37 µM
- CC50 (UACC-257; UACC-257, read-out: pLC50 (converted)): 81.3 µM
- TGI (UACC-257; UACC-257, read-out: pTGI): 24 µM
- GI50 (NCI-H226; NCI-H226, read-out: pGI50 (converted)): 0.537 µM
- CC50 (NCI-H226; NCI-H226, read-out: pLC50 (converted)): 28.8 µM
- TGI (NCI-H226; NCI-H226, read-out: pTGI): 3.24 µM
- GI50 (CCRF-CEM; read-out: pGI50 (converted)): 0.457 µM
- CC50 (CCRF-CEM; read-out: pLC50 (converted)): 52.5 µM
- TGI (CCRF-CEM; read-out: pTGI): 3.02 µM
- GI50 (HCT-15; HCT-15, read-out: pGI50 (converted)): 23.4 µM
- CC50 (HCT-15; HCT-15, read-out: pLC50 (converted)): > 100 µM
- TGI (HCT-15; HCT-15, read-out: pTGI): > 100 µM
- GI50 (CAKI-1; CAKI-1, read-out: pGI50 (converted)): 15.1 µM
- CC50 (CAKI-1; CAKI-1, read-out: pLC50 (converted)): > 100 µM
- TGI (CAKI-1; CAKI-1, read-out: pTGI): 60.3 µM
- GI50 (cells [2]; RPMI8266, read-out: pGI50 (converted)): 0.661 µM
- CC50 (cells [2]; RPMI8266, read-out: pLC50 (converted)): > 100 µM
- TGI (cells [2]; RPMI8266, read-out: pTGI): 3.89 µM
- GI50 (MDA-MB-231; MDA-MB-231, read-out: pGI50 (converted)): 1.1 µM
- CC50 (MDA-MB-231; MDA-MB-231, read-out: pLC50 (converted)): 52.5 µM
- TGI (MDA-MB-231; MDA-MB-231, read-out: pTGI): 9.77 µM
- GI50 (ACHN; read-out: pGI50 (converted)): 11.5 µM
- CC50 (ACHN; read-out: pLC50 (converted)): > 100 µM
- TGI (ACHN; read-out: pTGI): 64.6 µM
- GI50 (HL-60(TB); HL-60, read-out: pGI50 (converted)): 2.19 µM
- CC50 (HL-60(TB); HL-60, read-out: pLC50 (converted)): > 100 µM
- TGI (HL-60(TB); HL-60, read-out: pTGI): > 100 µM
- GI50 (K562; K562, read-out: pGI50 (converted)): 0.295 µM
- CC50 (K562; K562, read-out: pLC50 (converted)): > 100 µM
- GI50 (HT-29; HT-29, read-out: pGI50 (converted)): 0.209 µM
- CC50 (HT-29; HT-29, read-out: pLC50 (converted)): 70.8 µM
- TGI (HT-29; HT-29, read-out: pTGI): 10.2 µM
- GI50 (SNB-19; SNB-19, read-out: pGI50 (converted)): 0.275 µM
- CC50 (SNB-19; SNB-19, read-out: pLC50 (converted)): > 100 µM
- TGI (SNB-19; SNB-19, read-out: pTGI): 2.57 µM
- GI50 (A549; A549, read-out: pGI50 (converted)): 0.0776 µM
- CC50 (A549; A549, read-out: pLC50 (converted)): > 100 µM
- TGI (A549; A549, read-out: pTGI): 13.8 µM
- GI50 (HCT-116; HCT-116, read-out: pGI50 (converted)): 0.813 µM
- CC50 (HCT-116; HCT-116, read-out: pLC50 (converted)): > 100 µM
- TGI (HCT-116; HCT-116, read-out: pTGI): 4.9 µM
- GI50 (HOP-62; HOP-62, read-out: pGI50 (converted)): 0.525 µM
- CC50 (HOP-62; HOP-62, read-out: pLC50 (converted)): 30.9 µM
- TGI (HOP-62; HOP-62, read-out: pTGI): 5.62 µM
